The record followed here is patent US10112941B2, “Tricyclic compounds as anticancer agents” (BRISTOL-MYERS SQUIBB COMPANY, priority 2013, dated 2018).

In the assay the target is BRD4 (Homo sapiens, UniProt O60885). Description: Time Resolved Fluorescence Resonance Energy Transfer (TR-FRET) binding assay, BRD4. As to conditions: one of the FRET assays described. A general note: Time-resolved FRET reads energy transfer from a long-lived donor to a nearby acceptor.

Read-outs that look alike come from different tables or passages of the source. Bounds are passed on as bounds.

`Cc1noc(C)c1-c1cnc2c3ccc(S(C)(=O)=O)cc3n([C@H](c3ccccc3)C3CCOCC3)c2c1` [Example 171, 4-{7-Methanesulfonyl-5-[(S)-oxan-4-yl(phenyl)methyl]-5H-pyrido[3,2-b]indol-3-yl}-3,5-dimethyl-1,2-oxazole]: the IC50 – broadly, the concentration at which inhibition is half-maximal – (read-out: FRET BRD4 IC50) is less than 5 nM. Take `Cc1noc(C)c1-c1cnc2c3ccc(C(C)(C)O)cc3n(C(CCC(F)(F)F)c3cocn3)c2c1` (single isomer, unassigned) [Example 35, 2-[3-(Dimethyl-1,2-oxazol-4-yl)-5-[4,4,4-trifluoro-1-(1,3-oxazol-4-yl)butyl]-5H-pyrido[3,2-b]indol-7-yl]propan-2-ol]: the IC50 (read-out: FRET BRD4 IC50) was less than 25 nM. Consider `Cc1nnn(C)c1-c1cnc2c3ccc(C(C)(O)C4CC4)cc3n([C@H](c3ccccc3)C3CCOCC3)c2c1` (single isomer, unassigned) [Example 422], for which the IC50 (read-out: FRET BRD4 IC50) is less than 5 nM. On the same count and under the same terms, under `[2H]C([2H])([2H])c1nnn(C)c1-c1cnc2c3ccc(C(C)(C)O)cc3n(C(c3ccccc3)C3CCC(F)(F)CC3)c2c1` (centres unmarked) [Example 204, 2-{5-[(4,4-Difluorocyclohexyl)(phenyl)methyl]-3-[4-(^2H3)methyl-1-methyl-1H-1,2,3-triazol-5-yl]-5H-pyrido[3,2-b]indol-7-yl}propan-2-ol] stands less than 5 nM. Turning to `Cc1ccc([C@H](C2CCOCC2)n2c3cc(CS(C)(=O)=O)ccc3c3ncc(-c4c(C)nnn4C)cc32)nc1` [Example 338], the IC50 (read-out: FRET BRD4 IC50) was less than 5 nM. As for `Cc1nnn(C)c1-c1cnc2c3ccc(C(C)(O)C4CC4)cc3n([C@H](c3ccccc3)C3CCOCC3)c2c1` (single isomer, unassigned) [Example 423], the IC50 (read-out: FRET BRD4 IC50) is less than 5 nM. Regarding `COc1nnn(C)c1-c1cnc2c3ccc(S(C)(=O)=O)cc3n([C@H](c3ccccc3)C3CCOCC3)c2c1` [Example 391, 5-{7-Methanesulfonyl-5-[(S)-oxan-4-yl(phenyl)methyl]-5H-pyrido[3,2-b]indol-3-yl}-4-methoxy-1-methyl-1H-1,2,3-triazole], the IC50 (read-out: FRET BRD4 IC50) is less than 5 nM.

As for `Cc1ccnc([C@H](C2CCOCC2)n2c3cc(CS(C)(=O)=O)ccc3c3ncc(-c4c(C)nnn4C)cc32)c1` [Example 337], the IC50 (read-out: FRET BRD4 IC50) is less than 5 nM.

Turning to `Cc1nnn(C)c1-c1cnc2c3ccc(C(C)(C)NS(C)(=O)=O)c(F)c3n([C@H](c3ccccc3)C3CCOCC3)c2c1` [Example 463, N-{2-[3-(Dimethyl-1H-1,2,3-triazol-5-yl)-6-fluoro-5-[(S)-oxan-4-yl(phenyl)methyl]-5H-pyrido[3,2-b]indol-7-yl]propan-2-yl}methanesulfonamide], the IC50 (read-out: FRET BRD4 IC50) is less than 5 nM. With `[2H]C([2H])([2H])c1nnn(C)c1-c1cnc2c3ccc(C(C)(C)O)cc3n(C(c3ccncc3F)C3CCOCC3)c2c1` (single isomer, unassigned) [Example 310], where the note is “read-out: FRET BRD4 IC50”, the IC50 is less than 5 nM. Take `[2H]C([2H])([2H])c1nnn(C)c1-c1cnc2c3c(F)cc(S(C)(=O)=O)cc3n([C@H](c3ccc(F)cc3)C3CCOCC3)c2c1` [Example 201, 5-{9-Fluoro-5-[(S)-(4-fluorophenyl)(oxan-4-yl)methyl]-7-methanesulfonyl-5H-pyrido[3,2-b]indol-3-yl}-4-(^2H3)methyl-1-methyl-1H-1,2,3-triazole]: where the note is “read-out: FRET BRD4 IC50”, the IC50 is less than 5 nM. `Cc1noc(C)c1-c1cnc2c3ccc(C(C)(C)O)cc3n(C(CCC(F)(F)F)c3cnoc3)c2c1` (single isomer, unassigned) [Example 37, 2-[3-(Dimethyl-1,2-oxazol-4-yl)-5-[4,4,4-trifluoro-1-(1,2-oxazol-4-yl)butyl]-5H-pyrido[3,2-b]indol-7-yl]propan-2-ol]: the IC50 (read-out: FRET BRD4 IC50) was less than 5 nM. On to `CC(=O)c1ccc2c3ncc(-c4c(C)nnn4C)cc3n([C@H](c3ccccc3)C3CCOCC3)c2c1` [Example 421, 1-[3-(Dimethyl-1H-1,2,3-triazol-5-yl)-5-[(S)-oxan-4-yl(phenyl)methyl]-5H-pyrido[3,2-b]indol-7-yl]ethan-1-one], for which the half-maximal inhibitory concentration (IC50) (read-out: FRET BRD4 IC50) was less than 5 nM. Still for that read-out and setting: under `Cn1nnc(CO)c1-c1cnc2c3ccc(C(C)(C)O)cc3n([C@H](c3ccccc3)C3CCOCC3)c2c1` [Example 88, (S)-2-(3-(4-(Hydroxymethyl)-1-methyl-1H-1,2,3-triazol-5-yl)-5-(phenyl(tetrahydro-2H-pyran-4-yl)methyl)-5H-pyrido[3,2-b]indol-7-yl)propan-2-ol] stands less than 5 nM. For the molecule `[2H]C([2H])([2H])c1nnn(C)c1-c1cnc2c3ccc(C(C)(C)O)c(F)c3n(C(c3ccc(F)cc3F)C3CCOCC3)c2c1` (centres unmarked) [Example 282, 2-{5-[(2,4-Difluorophenyl)(oxan-4-yl)methyl]-6-fluoro-3-[4-(^2H3)methyl-1-methyl-1H-1,2,3-triazol-5-yl]-5H-pyrido[3,2-b]indol-7-yl}propan-2-ol], the IC50 (read-out: FRET BRD4 IC50) is less than 5 nM. With `Cc1nnn(C)c1-c1cnc2c3ccc(C(C)(C)O)cc3n([C@@H](CCC(F)(F)F)c3ccccc3)c2c1` [Example 57], the IC50 (read-out: FRET BRD4 IC50) was less than 5 nM.

Consider `COc1cc(F)c(C(C2CCOCC2)n2c3cc(C(C)(C)O)ccc3c3ncc(-c4c(C)nnn4C)cc32)cc1F` (single isomer, unassigned) [Example 123, 2-{5-[(2,5-Difluoro-4-methoxyphenyl)(oxan-4-yl)methyl]-3-(dimethyl-1H-1,2,3-triazol-5-yl)-5H-pyrido[3,2-b]indol-7-yl}propan-2-ol], for which the IC50 (read-out: FRET BRD4 IC50) is less than 5 nM. As for `[2H]C([2H])([2H])c1nnn(C)c1-c1cnc2c3c(OCC(F)F)ccc(S(C)(=O)=O)c3n(C(c3ncccc3F)C3CCOCC3)c2c1` (centres unmarked) [Example 246, 2-{[9-(2,2-Difluoroethoxy)-6-methanesulfonyl-3-[4-(^2H3)methyl-1-methyl-1H-1,2,3-triazol-5-yl]-5H-pyrido[3,2-b]indol-5-yl](oxan-4-yl)methyl}-3-fluoropyridine], the IC50 (read-out: FRET BRD4 IC50) was less than 1500 nM. For `Cc1nnn(C)c1-c1cnc2c3cc(F)c(C(C)(O)C4CC4)c(F)c3n([C@H](c3ccccc3)C3CCOCC3)c2c1` (single isomer, unassigned) [Example 450], the IC50 (read-out: FRET BRD4 IC50) is less than 5 nM.

Take `[2H]C([2H])([2H])c1nnn(C)c1-c1cnc2c3ccc(C(C)(C)O)cc3n(C(c3cc(Cl)ccn3)C3CCOCC3)c2c1` (single isomer, unassigned) [Example 457]: the 50% inhibitory concentration (IC50) (read-out: FRET BRD4 IC50) is less than 5 nM. For the setting “FRET BRD4 IC50 (nM)”, `Cn1nnc(Br)c1-c1cnc2c3ccc(C(C)(C)O)cc3n([C@H](c3ccccc3)C3CCOCC3)c2c1` [Example 384, 2-[3-(4-Bromo-1-methyl-1H-1,2,3-triazol-5-yl)-5-[(S)-oxan-4-yl(phenyl)methyl]-5H-pyrido[3,2-b]indol-7-yl]propan-2-ol] yielded an IC50 of less than 5 nM. With `Cc1noc(C)c1-c1cnc2c3ccc(C(C)(C)O)cc3n(C(c3ccccc3)C3CCC(F)(F)CC3)c2c1` (single isomer, unassigned) [Example 28, 2-{5-[(4,4-Difluorocyclohexyl)(phenyl)methyl]-3-(dimethyl-1,2-oxazol-4-yl)-5H-pyrido[3,2-b]indol-7-yl}propan-2-ol], the IC50 (read-out: FRET BRD4 IC50) was less than 5 nM. For the molecule `[2H]C([2H])([2H])c1nnn(C)c1-c1cnc2c3ccc(C(C)(C)O)cc3n(C(c3ncccc3C(F)(F)F)C3CCOCC3)c2c1` (single isomer, unassigned) [Example 319], under “read-out: FRET BRD4 IC50”, the IC50 was less than 5 nM. For the molecule `Cc1nnn(C)c1-c1cnc2c3c(S(C)(=O)=O)cccc3n(C(c3ccccc3F)C3CCOCC3)c2c1` (single isomer, unassigned) [Example 115, 5-{5-[(2-Fluorophenyl)(oxan-4-yl)methyl]-9-methanesulfonyl-5H-pyrido[3,2-b]indol-3-yl}-1,4-dimethyl-1H-1,2,3-triazole], the IC50 (read-out: FRET BRD4 IC50) is less than 5 nM.

In the case of `Cc1nnn(C)c1-c1cnc2c3ccc(C(C)(C)O)cc3n(Cc3ccccc3)c2c1` [Example 69, 2-[5-Benzyl-3-(dimethyl-1H-1,2,3-triazol-5-yl)-5H-pyrido[3,2-b]indol-7-yl]propan-2-ol], the IC50 (read-out: FRET BRD4 IC50) was less than 5 nM. With `Cc1nnn(C)c1-c1cnc2c3ccc(C(C)(C)O)cc3n(C(CCC(F)(F)F)c3ccccn3)c2c1` (single isomer, unassigned) [Example 253, 2-[3-(Dimethyl-1H-1,2,3-triazol-5-yl)-5-[4,4,4-trifluoro-1-(pyridin-2-yl)butyl]-5H-pyrido[3,2-b]indol-7-yl]propan-2-ol], the IC50 (read-out: FRET BRD4 IC50) is less than 5 nM. Still for that read-out and setting: under `Cc1cc(C(C2CCOCC2)n2c3cc(C(C)(C)O)ccc3c3ncc(-c4c(C)nnn4C)cc32)no1` (single isomer, unassigned) [Example 286, 2-[3-(Dimethyl-1H-1,2,3-triazol-5-yl)-5-[(5-methyl-1,2-oxazol-3-yl)(oxan-4-yl)methyl]-5H-pyrido[3,2-b]indol-7-yl]propan-2-ol] stands less than 5 nM; under `Cc1nnn(C)c1-c1cnc2c3ccc(C(O)(C4CC4)C4CC4)cc3n([C@H](c3ccccc3)C3CCOCC3)c2c1` [Example 408, Dicyclopropyl[3-(dimethyl-1H-1,2,3-triazol-5-yl)-5-[(S)-oxan-4-yl(phenyl)methyl]-5H-pyrido[3,2-b]indol-7-yl]methanol], less than 5 nM; under `Cc1noc(C)c1-c1cnc2c3ccc(C(C)(C)O)cc3n([C@@H](CCC(F)(F)F)c3ccccc3)c2c1` [Example 9], less than 5 nM. For the molecule `Cc1nnn(C)c1-c1cnc2c3c(F)cc(C(C)(C)O)cc3n(C(c3ccc(F)cc3F)C3CCOCC3)c2c1` (single isomer, unassigned) [Example 110, 2-{5-[(2,4-Difluorophenyl)(oxan-4-yl)methyl]-3-(dimethyl-1H-1,2,3-triazol-5-yl)-9-fluoro-5H-pyrido[3,2-b]indol-7-yl}propan-2-ol], the IC50 (read-out: FRET BRD4 IC50) is less than 5 nM. With `Cc1nnn(C)c1-c1cnc2c3c(S(C)(=O)=O)cccc3n(C(c3c(F)cc(F)cc3F)C3CCOCC3)c2c1` (single isomer, unassigned) [Example 117, 5-{9-Methanesulfonyl-5-[oxan-4-yl(2,4,6-trifluorophenyl)methyl]-5H-pyrido[3,2-b]indol-3-yl}-1,4-dimethyl-1H-1,2,3-triazole], the IC50 (read-out: FRET BRD4 IC50) was less than 5 nM. For the molecule `[2H]C([2H])([2H])c1nnn(C)c1-c1cnc2c3c(OCC(F)F)ccc(S(C)(=O)=O)c3n(C(c3ncccc3F)C3CCOCC3)c2c1` (centres unmarked) [Example 245, 2-{[9-(2,2-Difluoroethoxy)-6-methanesulfonyl-3-[4-(^2H3)methyl-1-methyl-1H-1,2,3-triazol-5-yl]-5H-pyrido[3,2-b]indol-5-yl](oxan-4-yl)methyl}-3-fluoropyridine], the IC50 (read-out: FRET BRD4 IC50) was less than 5 nM.
